{"source": "patent US10941116B2", "about": "“Crystalline forms of mesaconine and preparation methods therefor” (Gooddoctor Pharmaceutical Group Co., Ltd., priority 2018, dated 2021)", "type_in_all_cases": "physicochemical", "key": {"[1]": {"assay": "Influencing factors test (high temperature, high humidity, hard light irradiation), Chinese pharmacopoeia general rule 9001, analyzed by XRPD", "conditions": "open flat weighing bottle, 10 days", "description": "In addition, the crystalline form A of mesaconine was sampled and tested for influencing factors according to the Guiding principle for stability test of raw materials of drugs and preparations (general rule 9001, the Chinese pharmacopoeia, 2015 edition).\nHigh temperature test: the sample was placed in an open flat weighing bottle at 60° C. for 10 days. Then the sample was tested according to the key inspection items of stability test, and analyzed by X-ray powder diffraction.\nHigh humidity test: the sample was placed in an open flat weighing bottle at 25° C. and 90% relative humidity for 10 days. Then the sample was tested according to the key inspection items of stability test, and analyzed by X-ray powder diffraction.\nHard light irradiation test: the sample was placed in an open flat weighing bottle for 10 days under the illuminance of 4500 lx. Then the sample was tested according to the key inspection items of stability test, and analyzed by X-ray powder diffraction."}, "[2]": {"assay": "Stability of crystalline form A of mesaconine by XRPD comparison (storage for 4 weeks; heating to 180° C.)", "description": "After the samples of crystalline form A of mesaconine were placed at 25° C., 60% RH and 40° C., 75% RH for 4 weeks, it was performed XRPD test. The test result was compared with XRPD spectrum of comparative sample of crystalline form A of the mesaconine (XRPD spectrum of crystalline form A of mesaconine before stability test), and the results were shown in FIG. 4. Another sample of crystalline form A of mesaconine was heated to 180° C., and then was performed XRPD test. The test result was compared with XRPD spectrum of comparative sample of crystalline form A of the mesaconine (XRPD spectrum of crystalline form A of mesaconine before stability test), and the results were shown in FIG. 5."}, "[3]": {"assay": "Drug hygroscopicity test, Chinese Pharmacopoeia general rule 9103", "conditions": "for Percentage of weight increment(%): single batch", "description": "The test was performed according to guiding principles for drug hygroscopicity test in Chinese Pharmacopoeia (general rule 9103, volume 4, 2015 edition).\nAccording to the definition of hygroscopicity in Chinese Pharmacopoeia (general rule 9103, volume 4, 2015 edition): when the weight increment by hygroscopicity is less than 2% but not less than 0.2%, it has slight hygroscopicity. The weight increment of crystalline form A of mesaconine was 0.85% under the test conditions, which has slight hygroscopicity and good deliquescence resistance."}, "[4]": {"assay": "Solubility test, Chinese pharmacopoeia 2015 edition, general notice", "conditions": "solvent: water", "from_the_text": "The crystalline form A of mesaconine was sampled and tested according to the method of solubility test in the Chinese pharmacopoeia (2015 edition, general notice)."}, "[5]": {"assay": "Stability of crystalline form B of mesaconine by XRPD comparison after heating to 115° C.", "conditions": "heated to 115° C.", "description": "Appropriate amount of crystalline form B of mesaconine was sampled and heated to 115° C., and then was performed XRPD test. The test result was compared with XRPD spectrum of comparative sample of crystalline form B of mesaconine (XRPD spectrum of crystalline form B of mesaconine before stability test), and the results were shown in FIG. 9."}}, "data": [{"compound": "COC[C@]12CN(C)[C@@H]3[C@@H]4[C@H](OC)[C@H]1[C@@]3([C@@H](OC)C[C@H]2O)[C@@H]1C[C@@]2(O)[C@H](O)[C@@H]1[C@]4(O)[C@@H](O)[C@@H]2OC", "note": "[crystalline form A of mesaconine, N-methyl-1α,6α,16β,18-tetramethoxyl-4-methyl-aconite-3α,8β,13β,14α,15α-pentol]", "values": [{"measurement": "Position and relative intensity of main XRPD diffraction peaks after high humidity test", "setting": "[1]; 25° C., 90% relative humidity", "value": "had not changed significantly"}, {"measurement": "Position and relative intensity of main XRPD diffraction peaks after high temperature test", "setting": "[1]; 60° C.", "value": "had not changed significantly"}, {"measurement": "Position and relative intensity of main XRPD diffraction peaks after hard light irradiation test", "setting": "[1]; illuminance 4500 lx", "value": "had not changed significantly"}, {"measurement": "Crystalline form stability (XRPD main diffraction peaks)", "setting": "[2]; 25° C., 60% RH for 4 weeks", "value": "crystalline form did not change"}, {"measurement": "Crystalline form stability (XRPD main diffraction peaks)", "setting": "[2]; 40° C., 75% RH for 4 weeks", "value": "crystalline form did not change"}, {"measurement": "Crystalline form stability (XRPD main diffraction peaks)", "setting": "[2]; heated to 180° C.", "value": "crystalline form did not change"}, {"measurement": "Hygroscopicity class", "setting": "[3]; Chinese Pharmacopoeia definition", "value": "slight hygroscopicity (when the weight increment by hygroscopicity is less than 2% but not less than 0.2%, it has slight hygroscopicity)"}, {"measurement": "Percentage of average weight increment(%)", "setting": "[3]; hygroscopicity test, average of two batches", "value": 0.85, "unit": "%"}, {"measurement": "Percentage of weight increment(%)", "setting": "[3]; hygroscopicity test, listed as Sample 1", "value": 0.85, "unit": "%"}, {"measurement": "Percentage of weight increment(%)", "setting": "[3]; hygroscopicity test, listed as Sample 2", "value": 0.84, "unit": "%"}, {"measurement": "Solubility", "setting": "[4]", "value": "easily soluble (1 g of solute can be dissolved in 1~10 ml of solvent)"}]}, {"compound": "N-methyl-1α,6α,16β,18-tetramethoxyl-4-methyl-aconite-3α,8β,13β,14α,15α-pentol [crystalline form B of mesaconine]", "values": [{"measurement": "Crystalline form stability (XRPD main diffraction peaks)", "setting": "[5]", "value": "crystalline form did not change"}]}]}
